From patent US20250026741A1, “INHIBITORS OF THE ONCOGENIC SHP2 PHOSPHATASE AND USES THEREOF” (Sanford Burnham Prebys Medical Discovery Institute, priority 2021, published 2025)

Columns and labels:
[1] = test system: MLL-AF10 leukemia cells expressing E76K mutant SHP2; assay: Cell viability assay, MLL-AF10 cells expressing E76K mutant SHP2; format: cell-based, mouse; conditions: Mus musculus
Experimental: (§1) Cell viability assays of SHP099, #01, and #02 against mouse MLL-AF10 leukemia cells were conducted. Two MLL-AF10 cell lines were employed, one expressing wild-type SHP2, and the other expressing E76K mutant SHP2.

[2] = molecular target: SHP2cat (Homo sapiens (Human), UniProt Q06124); assay: OMFP fluorescence intensity inhibition assay, SHP2cat; format: biochemical; conditions: OMFP at Km (50 μM); read-out: IC50 against SHP2cat with OMFP
Chain of SHP2cat (Q06124 248-527): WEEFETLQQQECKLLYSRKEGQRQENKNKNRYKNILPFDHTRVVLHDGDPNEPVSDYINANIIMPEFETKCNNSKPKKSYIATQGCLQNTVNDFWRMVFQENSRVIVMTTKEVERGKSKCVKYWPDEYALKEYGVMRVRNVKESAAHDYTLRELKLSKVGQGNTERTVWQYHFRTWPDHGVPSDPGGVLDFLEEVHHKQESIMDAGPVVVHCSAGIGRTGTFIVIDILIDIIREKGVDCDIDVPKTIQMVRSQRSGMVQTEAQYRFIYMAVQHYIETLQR
Description: We confirmed specific and dose-dependent binding of inhibitors to SHP2 by protein thermal shift, which monitors the thermal stability of a target protein in vitro. […] In addition, we confirmed the inhibitory activity of several furanylbenzamide inhibitors, including the top two compounds #02 and #01, in SHP2cat inhibition assays using the alternative substrate 3-O-methylfluorescein phosphate (OMFP), which features a peak fluorescence emission that is red-shifted by […] compared to DiFMUP. The Km value of OMFP for SHP2cat was determined to be 50 μM. An OMFP fluorescence intensity-based assay was used to perform inhibitor dose-response experiments and determine IC50 values.
SHP2 inhibitors were tested at room temperature (RT) in a 384-well plate format standard phosphatase fluorescence intensity assay using DiFMUP (Invitrogen/Thermo Fisher Scientific, Carlsbad, CA) as a substrate and a total reaction volume of 25 μL. […] Fluorescence intensity was measured in kinetic mode (every minute for 7 or 10 min) using a Tecan Spark® Multimode Microplate Reader (Tecan, Groedig, Austria) with an excitation wavelength of 360 nm and an emission wavelength of 460 nm. The initial rates were determined from the linear progression curves of the PTP reaction. […] Initial rates were determined and IC50 vales calculated as described above.

[3] = test system: MLL-AF10 leukemia cells expressing wild-type SHP2; assay: Cell viability assay, MLL-AF10 cells expressing wild-type SHP2; format: cell-based, mouse; conditions: Mus musculus
Experimental: as §1

SMILES	IC50 [1] [nM]	IC50 [2] [nM]	IC50 [3] [nM]
Nc1ccc(NC(=O)c2cc(-c3ccc(/C=C4\Sc5ccccc5C4=O)o3)ccc2O)cc1 [#01, (Z)—N-(4-Aminophenyl)-2-hydroxy-5-(5-((3-oxobenzo[b]thiophen-2(3H)-ylidene)methyl)furan-2-yl)benzamide]	2000	1200	916
O=C(Nc1ccccc1)c1cc(-c2ccc(/C=C3\Sc4ccccc4C3=O)o2)ccc1O [#02, (Z)-2-hydroxy-5-(5-((3-oxobenzo[b]thiophen-2(3H)-ylidene)methyl)furan-2-yl)-N-phenylbenzamide]	3000	440	2000
